Molecular target: carbonyl BSA (Bos taurus, UniProt P02769)
Assay: Carbonyl protein reduction test with carbonyl BSA model (OxyBlot dot blot)
Assay type: biochemical, bovine
Conditions: for action of reducing carbonyl protein (carbonyl BSA): conclusion in words
Procedure: A carbonyl protein, obtained by carbonylating bovine serum albumin (termed “BSA”, hereinafter), was prepared as a carbonyl protein model (termed “carbonyl BSA”, hereinafter) and used in this experiment.
In phosphate buffered saline (termed “PBS (-)”, hereinafter) containing 100 μM of sodium hypochlorite as a carbonyl initiator was dissolved BSA to give a final concentration of 40 mg/mL, followed by keeping the resulting solution at 37° C. overnight to form carbonyl BSA, as a carbonyl protein model, used as a substance to cause skin yellowness, and removing the remaining sodium hypochlorite with “AMICON ULTRA 10K”, a product name of ultrafiltration membrane, commercialized by Merck Millipore Corporation, Tokyo, Japan, to obtain a carbonyl BSA. In this experiment, the carbonyl BSA was used as a carbonyl protein model.
Based on Western blot analysis, the concentration of carbonyl BSA was assayed with dot blot method using a kit, “OxyBlot™ Protein Oxidation Detection Kit”, a product name of a kit for analyzing the oxidation level of protein, commercialized by Merck Millipore Corporation, Tokyo, Japan. The resulting measured values (emission intensity) were analyzed with “Image J”, an image processing software explored by National Institutes of Health (NIH), Maryland, USA. While, a PBS (-) solution (called “control”, hereinafter) containing carbonyl BSA, obtained similarly as in the above except for not using any of the test samples, was similarly measured as in the above, followed by determining the ratios of the measured values for those with the test samples against that of control. The results are in Table 1 and FIG. 1. […] The numerals in the table respectively show the ratios of carbonyl BSA when the test samples were respectively used alone against the measured value of carbonyl BSA, regarded as 1, for Control with no addition of any of the test samples.
The results are respectively in Tables 2 and 3 and FIGS. 2 and 3. The numerals with no symbol “%” in each table show ratios of carbonyl BSA obtained in such a manner of calculating the amount of carbonyl BSA for the system with either or both of the test samples that were respectively used alone or used in combination while regarding as one the amount of carbonyl BSA in each control system with no addition of any of the compositions containing glycosyl hesperetin or glycosyl naringenin.
Except for using any one of mannose, N-acetylglucosamine, “MALTOSE HHH” as a product name of maltose, raffinose, maltotetraose, and “TORNARE®” as a product name of glycosyl trehalose used as a cosmetic base material, which are shown in Table 4 below, in place of the composition containing glycosyl naringenin and the ascorbic acid 2-glucoside used in the above (4), and preparing it into a solution containing 0.1 w/v % of any of the above saccharide for use as a test solution for carbonyl protein reduction test, it was examined the carbonyl protein reduction action of the combination use the composition containing glycosyl hesperetin and any one of the above-identified saccharides similarly as in the above (4).
This experiment was conducted with organic acids and amino acids, which were focused on as compounds to be used with the composition containing glycosyl hesperetin.

[1] = test—3, composition containing glycosyl hesperetin (0.1 w/v %) in combination with the labelled organic acid or amino acid (0.1 w/v % as headed)
[2] = test—3, sole use of organic acid or amino acid (0.1 w/v % as headed), Control = 1
[3] = test—2 (Table 5), single use 0.1 w/v %, Control = 1
[4] = test—2, combination use of composition containing glycosyl hesperetin (0.1 w/v %) and the labelled saccharide (0.1 w/v %)
[5] = sole use test, test sample 0.1 w/v %, carbonyl BSA:test sample 1:1 by mass, 37° C., 16 hours, Control (no addition) = 1

carbonyl BSA, sequence (P02769 25-607): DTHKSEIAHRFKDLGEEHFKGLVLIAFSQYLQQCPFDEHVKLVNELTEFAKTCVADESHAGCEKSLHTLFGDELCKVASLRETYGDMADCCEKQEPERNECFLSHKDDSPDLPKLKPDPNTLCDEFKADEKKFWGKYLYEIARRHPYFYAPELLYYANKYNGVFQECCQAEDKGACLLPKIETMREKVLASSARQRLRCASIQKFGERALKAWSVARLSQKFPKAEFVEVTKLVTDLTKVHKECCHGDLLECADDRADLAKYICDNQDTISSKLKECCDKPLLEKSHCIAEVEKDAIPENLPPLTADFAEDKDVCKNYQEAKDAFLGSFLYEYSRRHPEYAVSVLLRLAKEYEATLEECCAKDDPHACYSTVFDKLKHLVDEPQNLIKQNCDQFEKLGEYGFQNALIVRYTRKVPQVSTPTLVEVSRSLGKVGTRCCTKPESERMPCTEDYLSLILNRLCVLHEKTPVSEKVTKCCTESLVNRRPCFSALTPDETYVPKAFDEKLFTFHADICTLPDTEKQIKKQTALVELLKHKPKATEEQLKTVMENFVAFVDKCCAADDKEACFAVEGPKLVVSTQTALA

Structure (SMILES)	Ratio of carbonyl BSA [1]	Ratio of carbonyl BSA [2]	also measured
CC(=O)O [H, acetic acid]	0.25	1.08	–
NCC(=O)O [K, glycine]	0.32	0.71	–
O=C[C@H](O)[C@@H](O)[C@H](O)[C@H](O)C(=O)O [F, glucuronic acid]	0.16	1.01	–
O=C(O)C(O)C(O)C(=O)O (stereo not drawn) [B, tartaric acid]	0.51	0.95	–
OC[C@H]1O[C@H](O[C@H]2[C@H](O)[C@@H](O)[C@@H](O[C@H]3[C@H](O)[C@@H](O)[C@@H](O[C@H]4[C@H](O)[C@@H](O)C(O)O[C@@H]4CO)O[C@@H]3CO)O[C@@H]2CO)[C@H](O)[C@@H](O)[C@@H]1O (stereo partly drawn) [Maltotetraose, maltotetraose]	–	–	Ratio of carbonyl BSA [3]: 0.71; Ratio of carbonyl BSA [4]: 0.13
N[C@@H](CCC(=O)[O-])C(=O)[O-].[Na+].[Na+] [L, sodium glutamate]	0.28	0.77	–
O=C1O[C@H]([C@@H](O)CO)C(O)=C1O[C@H]1O[C@H](CO)[C@@H](O)[C@H](O)[C@H]1O [L-Ascorbic acid 2-glucoside, L-ascorbic acid 2-glucoside, reference compound]	–	–	Ratio of carbonyl BSA [5]: 0.73; Ratio of carbonyl BSA (test—1 (Tables 2, 3), single use, with no addition of the other ingredient, test sample 0.1 w/v %, Control = 1): 0.70
N[C@@H](CCC(=O)N[C@@H](CS)C(=O)NCC(=O)O)C(=O)O [Glutathione (reduced form), reduced glutathione, reference compound]	–	–	action of reducing carbonyl protein (carbonyl BSA): no action of reducing carbonyl protein; Ratio of carbonyl BSA [5]: 1.19
C/C=C/C=C/C(=O)O [I, sorbic acid]	0.26	1.04	–
COc1cc(/C=C/C(=O)O)ccc1O [E, ferulic acid]	0.35	0.82	–
NC(=O)c1cccnc1 [Niacinamide, niacinamide, reference compound]	–	–	action of reducing carbonyl protein (carbonyl BSA): no action of reducing carbonyl protein; Ratio of carbonyl BSA [5]: 1.05
O=C[C@H](O)[C@H]1OC(=O)[C@@H](O)[C@H]1O [G, glucuronolactone]	0.49	1.07	–
O=C(O)c1ccccc1 [J, benzoic acid]	0.44	0.95	–
OC[C@H]1O[C@H](O[C@H]2[C@H](O)[C@@H](O)C(O)O[C@@H]2CO)[C@H](O)[C@@H](O)[C@@H]1O (mixture of isomers) [Maltose, maltose]	–	–	Ratio of carbonyl BSA [3]: 0.18; Ratio of carbonyl BSA [4]: 0.11
CC(O)C(=O)O (stereo not drawn) [A, lactic acid]	0.35	0.89	–
CC(=O)N[C@H]1C(O)O[C@H](CO)[C@@H](O)[C@@H]1O (stereo partly drawn) [N-Acetyl glucosamine]	–	–	Ratio of carbonyl BSA [3]: 0.48; Ratio of carbonyl BSA [4]: 0.79
OC[C@H]1O[C@H](OC[C@H]2O[C@H](O[C@]3(CO)O[C@H](CO)[C@@H](O)[C@@H]3O)[C@H](O)[C@@H](O)[C@@H]2O)[C@H](O)[C@@H](O)[C@H]1O [Raffinose, raffinose]	–	–	Ratio of carbonyl BSA [3]: 0.23; Ratio of carbonyl BSA [4]: 0.54
O=C(O)CC(O)(CC(=O)O)C(=O)O [C, citric acid]	0.52	0.96	–

From patent publication US10568827B2, “External dermal agent for reducing yellowish dullness” (Hayashibara Co., Ltd., priority 2015, dated 2020)
